# Literature values in PubChem BioAssay AID1259410 (Chemical Carcinogenesis Research Information System (CCRIS), 2018).
# Tested on: rodent tumor promotion studies, tumor incidence
# Test: CCRIS tumor promotion studies
smiles,measurement,setting,value
CCO,outcome,"Carcinogen: N-METHYL-N'-NITRO-N-NITROSOGUANIDINE, 70-25-7, Doses [Carcinogen]: 50 UG/ML IN DRINKING WATER FOR 20 WK, Doses [Promoter]: 0, 2.5 ML/KG BW OF 20% AGENT IN 0.9% SALINE SOLUTION 1/2D BEGINNING 1 WK POST LAST CARCINOGEN DOSE AND CONTINUING FOR DU, Route [Carcinogen]: ORAL, Route [Promoter]: INTRAPERITONEAL, Species: RAT, Strain/Sex: WISTAR/MALE",stomach: adenocarcinoma
same,outcome,"Carcinogen: N-METHYL-N-NITROSOUREA, 684-93-5, Doses [Carcinogen]: 30 MG/KG BW ONCE AT 50 D OF AGE, Doses [Promoter]: 0, 15% OF CALORIES IN DIET FOR 4 WK BEGINNING 3 WK PRIOR TO CARCINOGEN DOSE (STUDY DURATION: 25 WK), Route [Carcinogen]: INTRAPERITONEAL, Route [Promoter]: ORAL, Species: RAT, Strain/Sex: SPRAGUE-DAWLEY/FEMALE",mammary gland: adenocarcinoma
same,outcome,"Carcinogen: N-METHYL-N-NITROSOUREA, 684-93-5, Doses [Carcinogen]: 30 MG/KG BW ONCE AT 51 D OF AGE, Doses [Promoter]: 0, 15%, 20% OF CALORIES IN DIET BEGINNING 1 WK POST CARCINOGEN DOSE AND CONTINUING FOR DURATION OF STUDY (STUDY DURATION, Doses [Promoter]: 0, 15%, 20% OF CALORIES IN DIET BEGINNING 1 WK POST CARCINOGEN DOSE AND CONTINUING FOR DURATION OF STUDY (STUDY DURATION, Route [Carcinogen]: INTRAPERITONEAL, Route [Promoter]: ORAL, Species: RAT, Strain/Sex: SPRAGUE-DAWLEY/FEMALE",mammary gland: adenocarcinoma
same,outcome,"Carcinogen: N-NITROSODIMETHYLAMINE, 62-75-9, Doses [Carcinogen]: 1 PPM IN DRINKING WATER FOR 48 OR 72 WK, Doses [Promoter]: 0, 10% IN DRINKING WATER FOR 48 OR 72 WK (STUDY DURATION: 72 WK), Route [Carcinogen]: ORAL, Route [Promoter]: ORAL, Species: MOUSE, Strain/Sex: STRAIN-A/MALE",lung: tumor
same,outcome,"Carcinogen: N-NITROSODIMETHYLAMINE, 62-75-9, Doses [Carcinogen]: 5 MG/KG ONCE, Doses [Promoter]: 0, 5, 10, 20% SOLUTION ADMINISTERED WITH CARCINOGEN DOSE (STUDY DURATION: 16 WK), Doses [Promoter]: 0, 5, 10, 20% SOLUTION ADMINISTERED WITH CARCINOGEN DOSE (STUDY DURATION: 16 WK), Route [Carcinogen]: GAVAGE, Route [Promoter]: GAVAGE, Species: MOUSE, Strain/Sex: STRAIN-A/MALE",lung: tumor
same,outcome,"Carcinogen: N-NITROSODIMETHYLAMINE, 62-75-9, Doses [Carcinogen]: 5 PPM IN DRINKING WATER FOR 4 WK, Doses [Promoter]: 0, 1, 5, 10% IN DRINKING WATER FOR 4 WK (STUDY DURATION: 16 WK), Doses [Promoter]: 0, 1, 5, 10% IN DRINKING WATER FOR 4 WK (STUDY DURATION: 16 WK), Route [Carcinogen]: ORAL, Route [Promoter]: ORAL, Species: MOUSE, Strain/Sex: STRAIN-A/MALE",lung: tumor
same,outcome,"Carcinogen: N-NITROSOMETHYLBENZYLAMINE, 937-40-6, Doses [Carcinogen]: 0.2 MG/KG BW IN CORN OIL 3/WK FOR 3 WK, Doses [Promoter]: 0, 30% OF TOTAL CALORIES BEGINNING POST CARCINOGEN TREATMENT AND CONTINUING FOR DURATION OF STUDY (STUDY DURATION: 23 WK, Route [Carcinogen]: GAVAGE, Route [Promoter]: ORAL, Species: MOUSE, Strain/Sex: C57BL/FEMALE",esophagus: tumor
same,outcome,"Carcinogen: N-NITROSOMETHYLBENZYLAMINE, 937-40-6, Doses [Carcinogen]: 0.2 MG/KG IN CORN OIL 3/WK FOR 3 WK, Doses [Promoter]: SUBSTITUTED FOR MALTOSE DEXTRIN IN DIET TO PROVIDE 30% OF TOTAL DIETARY CALORIES BEGINNING POST CARCINOGEN TREATMENT AND, Route [Carcinogen]: GAVAGE, Route [Promoter]: ORAL, Species: MOUSE, Strain/Sex: C57BL/FEMALE",esophagus: tumor
same,outcome,"Carcinogen: N-NITROSOMETHYLBENZYLAMINE, 937-40-6, Doses [Carcinogen]: 2.5 MG/KG 3/WK FOR 3 WK, Doses [Promoter]: 1-2% IN LIQUID DIET ON DAY 1 AND INCREASING TO 7% BY DAY 8 OF AGENT TREATMENT BEGINNING 1 WK POST LAST CARCINOGEN DOSE F, Route [Carcinogen]: INTRAPERITONEAL, Route [Promoter]: ORAL, Species: RAT, Strain/Sex: SPRAGUE-DAWLEY/MALE",esophagus: papilloma
same,outcome,"Carcinogen: N-NITROSOPYRROLIDINE, 930-55-2, Doses [Carcinogen]: 6.8 PPM IN DRINKING WATER FOR 4 WK, Doses [Promoter]: 0, 10% IN STERILIZED DISTILLED DRINKING WATER ADMINISTERED WITH CARCINOGEN FOR 4 WK (STUDY DURATION: 36 WK), Route [Carcinogen]: ORAL, Route [Promoter]: ORAL, Species: MOUSE, Strain/Sex: STRAIN-A/MALE",lung: tumor
same,outcome,"Carcinogen: N-NITROSOPYRROLIDINE, 930-55-2, Doses [Carcinogen]: 40 PPM IN DRINKING WATER FOR 4 WK, Doses [Promoter]: 0, 10% IN STERILIZED DISTILLED DRINKING WATER ADMINISTERED WITH CARCINOGEN FOR 4 WK (STUDY DURATION: 36 WK), Route [Carcinogen]: ORAL, Route [Promoter]: ORAL, Species: MOUSE, Strain/Sex: STRAIN-A/MALE",lung: tumor
same,outcome,"Carcinogen: NITROSODIETHYLAMINE, 55-18-5, Doses [Carcinogen]: 6.8 PPM IN DRINKING WATER FOR 4 WK, Doses [Promoter]: 0, 10% IN STERILIZED DISTILLED DRINKING WATER ADMINISTERED WITH CARCINOGEN FOR 4 WK (STUDY DURATION: 36 WK), Route [Carcinogen]: ORAL, Route [Promoter]: ORAL, Species: MOUSE, Strain/Sex: STRAIN-A/MALE",lung: tumor; forestomach: carcinoma
same,outcome,"Doses [Carcinogen]: 1.5 MG/KG IN DMSO 2/WK FOR 10 WK (TOTAL DOSE: 30 MG/KG), Doses [Promoter]: 10% IN DRINKING WATER FOR 56 WK ADMINISTERED 1 WK POST CARCINOGEN DOSES (STUDY DURATION: 57 WK), Route [Carcinogen]: INTRAPERITONEAL, Route [Promoter]: ORAL, Species: RAT, Strain/Sex: ACI/N/MALE","liver: hepatocellular carcinoma, neoplastic nodule"
